From patent US12391664B2, “GluN2C/D subunit selective antagonists of the N-methyl-D-aspartate receptor” (Emory University, priority 2018, dated 2025)
Like-named read-outs stand apart in the source and are kept apart here.

Experiments:
Type in all cases: cell-based
[1] = target: T1, recombinant rat GluN1/GluN2B (Rattus norvegicus, UniProt Q00960); assay: Two-electrode voltage-clamp recordings in Xenopus laevis oocytes, GluN2B; details: oocytes, 100 μM glutamate and 30 μM glycine
T1 construct: expressed in transfected cells; host or cells: Xenopus laevis oocytes injected with cRNA (GluN1:GluN2 ratio 1:2)
Description: (§1) All target compounds were evaluated for activity by the Traynelis laboratory at Emory University using two-electrode voltage-clamp recordings performed in Xenopus laevis oocytes expressing recombinant GluN2A-D subunits (Table 1). […] Two ester compounds 997-65 and 997-66 also performed no inhibition at GluN2A to GluN2D receptors. […] Consequently, for the compounds that Acker et al. already published, it was necessary to increase the concentration to 100 μM when collecting data for a concentration effect curve. […] Therefore, under this condition, we can only conclude that compound 997-67 remained potent at GluN2C/D-containing receptors, but its selectivity over GluN2A- and GluN2B-containing receptors could not be compared to 997-57. […] Finally, replacing the carboxylic acid to the bio-isostere amide yielded compounds 997-96 and 997-115, which dropped the potency 2- to 4-fold in comparison to their corresponding acids 997-74 and 997-114.
(§2) Two-electrode voltage-clamp recordings were performed in Xenopus laevis oocytes that were injected with mRNA to express recombinant rat GluN1/GluN2A, GluN1/GluN2B, GluN1/GluN2C, and GluN1/GluN2D. The recordings using unfertilized oocytes from Xenopus laevis were permitted by Emory University Institutional Animal Care and Use Committee (IACUC). An automatic injector (Nanoject II, Drummond Scientific) was used for cRNA injection using the pipettes filled with mineral oil. The cRNA that transcribed in vitro via the mMessage Machine kit (Ambion) was diluted with nuclease-free water, and then injected at GluN1/GluN2 with a ratio of 1:2. The oocytes were stored in Barth's solution that contained 88 mM NaCl, 5.0 mM Tris-HCl, 2.4 mM NaHCO3, 1.0 mM KCl, 0.84 mM MgSO4, 0.41 mM CaCl2, 0.33 mM Ca(NO3)2, 0.1 mg/ml gentamycin sulfate, 1.0 U/ml penicillin, and 1 μg/ml streptomycin at a pH of 7.4 and temperatures of 15-17° C. for two to five days before the two-electrode voltage-clamp recordings. When recording, the oocytes were placed in a perfusion chamber and continually washed with the recording solution comprised of 90 mM NaCl, 1.0 mM KCl, 0.50 mM BaCl2, 0.005 mM EDTA, and 10 mM HEPES at a pH of 7.4 and a temperature of 23° C. Glass electrodes with a tip resistance of 0.5 to 2.5 MΩ were obtained from thin-walled glass capillary tubes. Voltage electrodes and current electrodes were filled with 0.3 M and 3.0 M KCl, respectively. The recordings were executed with the oocytes membrane potential holding at −40 m V by an OC-725 amplifier (Warner Instrument Co). All compounds were dissolved in dimethyl sulfoxide (DMSO) as 20 mM stock solutions and future diluted to reach the desired concentration (0.05-0.5% (vol/vol) DMSO) in recording solution comprised of 30 μM glycine and 100 μM glutamate. Each compound was recorded 3-7 times in the least 4 oocytes from at least 2 different Xenopus laevis.
(§3) To evaluate the inhibition of compounds, the concentration-response curve was fitted with the average two-electrode voltage-clamp recording results with the equation
(§4) [formula] • where IC50 is the concentration of compounds that inhibit half maximal of the current response and N is the Hill slope.

[2] = target: T2, recombinant rat GluN1/GluN2A (Rattus norvegicus, UniProt Q00959); assay: Two-electrode voltage-clamp recordings in Xenopus laevis oocytes, GluN2A; details: oocytes, 100 μM glutamate and 30 μM glycine
T2 construct: expressed in transfected cells; host or cells: Xenopus laevis oocytes injected with cRNA (GluN1:GluN2 ratio 1:2)
T2 sequence (Q00959 23-1464, other chains not shown): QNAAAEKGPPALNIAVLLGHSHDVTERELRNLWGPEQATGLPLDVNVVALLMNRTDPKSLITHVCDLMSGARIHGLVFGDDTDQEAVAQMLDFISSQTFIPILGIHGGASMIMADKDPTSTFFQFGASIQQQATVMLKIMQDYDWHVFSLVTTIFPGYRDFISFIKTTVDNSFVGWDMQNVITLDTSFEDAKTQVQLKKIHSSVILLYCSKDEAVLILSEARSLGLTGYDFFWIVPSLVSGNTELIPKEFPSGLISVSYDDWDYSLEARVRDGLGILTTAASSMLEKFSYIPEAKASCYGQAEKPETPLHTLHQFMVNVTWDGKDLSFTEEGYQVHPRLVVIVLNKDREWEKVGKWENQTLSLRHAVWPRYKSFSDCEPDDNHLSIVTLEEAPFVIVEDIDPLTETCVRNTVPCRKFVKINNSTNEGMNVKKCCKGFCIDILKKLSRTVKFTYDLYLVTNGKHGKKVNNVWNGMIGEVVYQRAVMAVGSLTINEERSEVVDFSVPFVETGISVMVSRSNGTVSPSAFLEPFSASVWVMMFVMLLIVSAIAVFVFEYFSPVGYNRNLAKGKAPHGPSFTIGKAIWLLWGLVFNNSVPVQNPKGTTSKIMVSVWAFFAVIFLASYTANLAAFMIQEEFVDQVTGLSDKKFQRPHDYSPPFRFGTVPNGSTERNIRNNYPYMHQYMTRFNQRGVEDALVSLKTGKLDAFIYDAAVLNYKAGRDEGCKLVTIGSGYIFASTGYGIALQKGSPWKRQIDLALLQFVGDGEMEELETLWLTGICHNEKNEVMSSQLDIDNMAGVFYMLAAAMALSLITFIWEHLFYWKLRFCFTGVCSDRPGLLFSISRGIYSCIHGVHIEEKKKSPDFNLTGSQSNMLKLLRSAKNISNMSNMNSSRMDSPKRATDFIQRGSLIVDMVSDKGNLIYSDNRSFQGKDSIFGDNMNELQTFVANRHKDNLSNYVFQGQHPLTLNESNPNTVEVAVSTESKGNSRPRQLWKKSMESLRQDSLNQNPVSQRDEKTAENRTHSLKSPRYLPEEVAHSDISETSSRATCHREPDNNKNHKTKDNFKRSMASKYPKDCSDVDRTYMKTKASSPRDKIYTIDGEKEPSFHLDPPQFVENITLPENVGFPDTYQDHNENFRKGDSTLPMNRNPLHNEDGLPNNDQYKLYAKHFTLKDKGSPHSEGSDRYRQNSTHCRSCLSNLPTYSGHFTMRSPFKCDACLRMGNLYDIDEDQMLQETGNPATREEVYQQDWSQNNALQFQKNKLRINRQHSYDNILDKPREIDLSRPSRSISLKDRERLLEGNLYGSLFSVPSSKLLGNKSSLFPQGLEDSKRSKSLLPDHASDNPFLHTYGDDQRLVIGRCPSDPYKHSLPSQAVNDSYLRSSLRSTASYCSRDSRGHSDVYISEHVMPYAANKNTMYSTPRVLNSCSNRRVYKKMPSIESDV
Description: as §1, §2, §3, §4

[3] = target: T3, recombinant rat GluN1/GluN2D (Rattus norvegicus, UniProt P35439+Q62645); assay: Two-electrode voltage-clamp recordings in Xenopus laevis oocytes, GluN2D
T3 construct: expressed in transfected cells; host or cells: Xenopus laevis oocytes injected with cRNA (GluN1:GluN2 ratio 1:2)
T3 sequence (Q62645 28-1323, other chains not shown): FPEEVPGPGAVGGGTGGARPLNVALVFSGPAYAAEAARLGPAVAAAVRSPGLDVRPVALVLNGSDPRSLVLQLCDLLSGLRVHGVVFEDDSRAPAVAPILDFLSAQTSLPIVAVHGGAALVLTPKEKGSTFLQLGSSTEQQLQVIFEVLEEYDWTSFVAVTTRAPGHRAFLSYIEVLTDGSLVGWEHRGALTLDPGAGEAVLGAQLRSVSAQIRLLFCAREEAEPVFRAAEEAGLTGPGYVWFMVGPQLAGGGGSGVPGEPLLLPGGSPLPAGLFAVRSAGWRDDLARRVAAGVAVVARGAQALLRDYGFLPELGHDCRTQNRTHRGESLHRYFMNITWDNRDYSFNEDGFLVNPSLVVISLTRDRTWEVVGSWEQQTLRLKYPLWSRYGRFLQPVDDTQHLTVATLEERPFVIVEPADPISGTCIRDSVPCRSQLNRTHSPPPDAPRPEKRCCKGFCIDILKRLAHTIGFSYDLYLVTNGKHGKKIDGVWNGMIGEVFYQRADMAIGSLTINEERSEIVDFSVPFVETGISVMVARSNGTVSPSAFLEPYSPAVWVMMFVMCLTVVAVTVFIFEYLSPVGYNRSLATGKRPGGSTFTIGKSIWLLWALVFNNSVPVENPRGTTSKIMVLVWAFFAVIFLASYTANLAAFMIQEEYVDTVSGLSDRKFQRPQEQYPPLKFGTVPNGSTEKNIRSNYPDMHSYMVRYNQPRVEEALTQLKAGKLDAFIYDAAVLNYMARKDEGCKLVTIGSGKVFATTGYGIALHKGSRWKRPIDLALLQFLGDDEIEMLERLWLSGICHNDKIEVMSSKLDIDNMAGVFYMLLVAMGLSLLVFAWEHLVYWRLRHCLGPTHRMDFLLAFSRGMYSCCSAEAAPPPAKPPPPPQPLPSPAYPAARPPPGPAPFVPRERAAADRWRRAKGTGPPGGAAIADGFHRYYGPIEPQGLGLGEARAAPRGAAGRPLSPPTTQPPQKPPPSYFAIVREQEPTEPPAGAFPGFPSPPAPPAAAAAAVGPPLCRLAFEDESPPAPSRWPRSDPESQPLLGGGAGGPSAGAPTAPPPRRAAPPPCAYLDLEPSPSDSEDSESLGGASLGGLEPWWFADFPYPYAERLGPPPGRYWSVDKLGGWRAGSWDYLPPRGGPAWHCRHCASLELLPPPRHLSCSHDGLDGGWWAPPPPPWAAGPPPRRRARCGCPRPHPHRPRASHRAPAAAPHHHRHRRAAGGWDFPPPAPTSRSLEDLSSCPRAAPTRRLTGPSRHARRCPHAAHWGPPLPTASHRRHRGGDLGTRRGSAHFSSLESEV
Description: as §1, §2, §3, §4

[4] = target: T4, recombinant rat GluN1/GluN2C (Rattus norvegicus, UniProt P35439+Q00961); assay: Two-electrode voltage-clamp recordings in Xenopus laevis oocytes, GluN2C; details: oocytes, 100 μM glutamate and 30 μM glycine; read-out: GluN2C IC50
T4 construct: expressed in transfected cells; host or cells: Xenopus laevis oocytes injected with cRNA (GluN1:GluN2 ratio 1:2)
T4 sequence (Q00961 20-1237, other chains not shown): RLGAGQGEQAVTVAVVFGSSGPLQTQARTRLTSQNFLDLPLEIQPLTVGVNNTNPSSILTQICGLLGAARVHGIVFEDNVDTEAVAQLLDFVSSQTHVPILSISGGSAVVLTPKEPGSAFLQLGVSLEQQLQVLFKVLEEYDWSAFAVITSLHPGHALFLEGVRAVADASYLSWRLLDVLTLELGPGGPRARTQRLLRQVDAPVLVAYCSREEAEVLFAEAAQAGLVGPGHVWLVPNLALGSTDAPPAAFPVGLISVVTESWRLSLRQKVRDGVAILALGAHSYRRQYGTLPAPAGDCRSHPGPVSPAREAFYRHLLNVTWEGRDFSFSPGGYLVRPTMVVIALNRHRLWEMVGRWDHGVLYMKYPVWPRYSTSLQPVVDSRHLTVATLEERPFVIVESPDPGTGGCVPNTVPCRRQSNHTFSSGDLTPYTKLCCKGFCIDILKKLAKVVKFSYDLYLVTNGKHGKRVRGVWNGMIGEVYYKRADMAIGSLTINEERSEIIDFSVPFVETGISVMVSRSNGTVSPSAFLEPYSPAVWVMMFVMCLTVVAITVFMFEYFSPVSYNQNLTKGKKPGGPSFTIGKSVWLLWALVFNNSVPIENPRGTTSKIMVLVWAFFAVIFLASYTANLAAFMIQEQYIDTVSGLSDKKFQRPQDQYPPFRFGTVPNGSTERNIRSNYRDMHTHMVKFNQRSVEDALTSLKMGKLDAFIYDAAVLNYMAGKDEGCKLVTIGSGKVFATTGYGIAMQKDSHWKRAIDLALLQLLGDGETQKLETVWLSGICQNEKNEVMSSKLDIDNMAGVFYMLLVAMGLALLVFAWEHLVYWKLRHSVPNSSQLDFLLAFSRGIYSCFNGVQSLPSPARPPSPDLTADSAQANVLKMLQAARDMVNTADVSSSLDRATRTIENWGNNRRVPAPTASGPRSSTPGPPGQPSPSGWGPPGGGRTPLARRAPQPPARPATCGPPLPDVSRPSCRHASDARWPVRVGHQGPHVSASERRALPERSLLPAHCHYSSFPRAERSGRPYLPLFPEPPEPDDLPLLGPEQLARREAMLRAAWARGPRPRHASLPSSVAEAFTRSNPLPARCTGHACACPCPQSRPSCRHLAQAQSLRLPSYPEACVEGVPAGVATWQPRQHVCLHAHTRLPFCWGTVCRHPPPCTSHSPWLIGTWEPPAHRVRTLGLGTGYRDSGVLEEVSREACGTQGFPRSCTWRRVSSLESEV
Description: as §1, §2, §3, §4

[5] = target: T5, recombinant rat GluN1/GluN2B (Rattus norvegicus, UniProt P35439+Q00960); assay: Two-electrode voltage-clamp recordings in Xenopus laevis oocytes, GluN2B; details: oocytes, 100 μM glutamate and 30 μM glycine
T5 construct: expressed in transfected cells; host or cells: Xenopus laevis oocytes injected with cRNA (GluN1:GluN2 ratio 1:2)
Description: as §1, §2, §3, §4

[6] = target: T6, recombinant rat GluN1/GluN2D (Rattus norvegicus, UniProt Q62645); assay: Two-electrode voltage-clamp recordings in Xenopus laevis oocytes, GluN2D; details: for 2A IC50 / 2D IC50 / 2B IC50 / 2D IC50: ratio of IC50 values
T6 construct: expressed in transfected cells; host or cells: Xenopus laevis oocytes injected with cRNA (GluN1:GluN2 ratio 1:2)
T6 sequence (Q62645 28-1323, other chains not shown): as the sequence (Q62645 28-1323, other chains not shown) above
Description: as §1, §2, §3, §4

[7] = GluN2C and GluN2D receptors, read-out: IC50 values at GluN2C and GluN2D receptors, range over the alcohol compounds
[8] = oocytes, 100 μM glutamate and 30 μM glycine, read-out: GluN2D IC50
[9] = read-out: IC50 at GluN2D-containing receptors

O=C(CC(F)(F)CO)N1N=C(c2c(-c3ccc(Cl)cc3)c3ccccc3[nH]c2=O)CC1c1ccc(Cl)cc1 (centres unmarked) [997-67, 4-(4-chlorophenyl)-3-[5-(4-chlorophenyl)-1-(3,3-difluoro-4-hydroxybutanoyl)-4,5-dihydro-1H-pyrazol-3-yl]quinolin-2(1H)-one]
GluN2B IC50 [1]: NE (NE indicates less than 50% inhibition at 30 μM.)
GluN2A IC50 [2]: NE (NE indicates less than 50% inhibition at 30 μM.)
IC50 [3, 7]: 0.8 to 2 µM

O=C(CC(F)(F)CO)N1N=C(c2c(-c3cccc(F)c3)c3ccccc3[nH]c2=O)CC1c1ccc(Cl)cc1 (centres unmarked) [997-68, 3-[5-(4-chlorophenyl)-1-(3,3-difluoro-4-hydroxybutanoyl)-4,5-dihydro-1H-pyrazol-3-yl]-4-(3-fluorophenyl)quinolin-2(1H)-one]
IC50 [4]: 4.3 µM
GluN2B IC50 [1]: NE (NE indicates less than 50% inhibition at 30 μM.)
GluN2A IC50 [2]: NE (NE indicates less than 50% inhibition at 30 μM.)
IC50 [3, 7]: 0.8 to 2 µM
IC50 [3, 8]: 1.4 µM

O=C(N1N=C(c2c(-c3ccc(Cl)cc3)c3ccccc3[nH]c2=O)CC1c1ccc(Cl)cc1)C(F)(F)CCO (centres unmarked) [997-75, 4-(4-chlorophenyl)-3-[5-(4-chlorophenyl)-1-(2,2-difluoro-4-hydroxybutanoyl)-4,5-dihydro-1H-pyrazol-3-yl]quinolin-2(1H)-one]
IC50 [4]: 17 µM
GluN2B IC50 [1]: NE (NE indicates less than 50% inhibition at 30 μM.)
GluN2A IC50 [2]: NE (NE indicates less than 50% inhibition at 30 μM.)
IC50 [3, 7]: 0.8 to 2 µM
IC50 [3, 8]: 2 µM

O=C(O)CCC(=O)N1N=C(c2c(-c3ccncc3)c3ccccc3[nH]c2=O)CC1c1ccc(Cl)cc1 (centres unmarked) [997-82, 4-(5-(4-chlorophenyl)-3-(2-oxo-4-(pyridin-4-yl)-1,2-dihydroquinolin-3-yl)-4,5-dihydro-1H-pyrazol-1-yl)-4-oxobutanoic acid]
GluN2B IC50 [1]: NE (NE indicates less than 50% inhibition at 30 μM.)
GluN2A IC50 [2]: NE (NE indicates less than 50% inhibition at 30 μM.)

Cc1ccc2[nH]c(=O)c(C3=NN(C(=O)CC(F)(F)CO)C(c4ccc(Cl)cc4)C3)c(-c3ccc(Cl)cc3)c2c1 (centres unmarked) [997-91, 4-(4-chlorophenyl)-3-[5-(4-chlorophenyl)-1-(3,3-difluoro-4-hydroxybutanoyl)-4,5-dihydro-1H-pyrazol-3-yl]-6-methylquinolin-2(1H)-one]
IC50 [4]: 7.1 µM
GluN2B IC50 [1]: NE (NE indicates less than 50% inhibition at 30 μM.)
GluN2A IC50 [2]: NE (NE indicates less than 50% inhibition at 30 μM.)
IC50 [3, 8]: 4.4 µM

O=C(O)CC(F)(F)C(=O)N1N=C(c2ccccc2-c2ccc(Cl)cc2)CC1c1ccc(Cl)cc1 (centres unmarked) [997-95, 4-(3-(4′-chloro-[1,1′-biphenyl]-2-yl)-5-(4-chlorophenyl)-4,5-dihydro-1H-pyrazol-1-yl)-3,3-difluoro-4-oxobutanoic acid]
IC50 [4]: 4.8 µM
IC50 [5]: 6.4 µM
2A IC50 / 2D IC50 [6]: 5
2B IC50 / 2D IC50 [6]: 1
IC50 [3, 8]: 6.2 µM

NC(=O)CC(F)(F)C(=O)N1N=C(c2c(-c3ccc(Cl)cc3)c3ccccc3[nH]c2=O)CC1c1ccc(Cl)cc1 (centres unmarked) [997-96, 4-(5-(4-chlorophenyl)-3-(4-(4-chlorophenyl)-2-oxo-1,2-dihydroquinolin-3-yl)-4,5-dihydro-1H-pyrazol-1-yl)-3,3-difluoro-4-oxobutanamide]
IC50 [4]: 0.5 µM
IC50 [5]: 2.8 µM
2A IC50 / 2D IC50 [6]: 150
2B IC50 / 2D IC50 [6]: 14
IC50 [3, 8]: 0.2 µM

O=C(O)CC(F)(F)C(=O)N1N=C(c2c(-c3ccc(Cl)cc3)c3ccccc3[nH]c2=S)CC1c1ccc(Cl)cc1 (centres unmarked) [997-98, 4-(5-(4-chlorophenyl)-3-(4-(4-chlorophenyl)-2-thioxo-1,2-dihydroquinolin-3-yl)-4,5-dihydro-1H-pyrazol-1-yl)-3,3-difluoro-4-oxobutanoic acid]
IC50 [4]: 0.44 µM
GluN2B IC50 [1]: inactive
GluN2B IC50 ([1]; listed as 98): NE (NE indicates less than 50% inhibition at 30 μM.)
GluN2A IC50 [2]: inactive
GluN2A IC50 ([2]; listed as 98): NE (NE indicates less than 50% inhibition at 30 μM.)
IC50 [3, 9]: 0.14 µM

O=C(O)CCC(=O)N1N=C(c2ccccc2-c2ccc(Cl)cc2)CC1c1ccc(Cl)cc1 (centres unmarked) [997-99, 4-(3-(4′-chloro-[1,1′-biphenyl]-2-yl)-5-(4-chlorophenyl)-4,5-dihydro-1H-pyrazol-1-yl)-4-oxobutanoic acid]
IC50 [4]: 16 µM
GluN2B IC50 [1]: NE (NE indicates less than 50% inhibition at 30 μM.)
GluN2A IC50 [2]: NE (NE indicates less than 50% inhibition at 30 μM.)
IC50 [3, 8]: 12 µM

O=C(O)CC(F)(F)C(=O)N1N=C(c2c(-c3ccc(F)cc3)c3ccccc3[nH]c2=O)CC1c1ccc(F)cc1 (centres unmarked) [997-103, 3,3-difluoro-4-(5-(4-fluorophenyl)-3-(4-(4-fluorophenyl)-2-oxo-1,2-dihydroquinolin-3-yl)-4,5-dihydro-1H-pyrazol-1-yl)-4-oxobutanoic acid]
IC50 [4]: 7 µM
GluN2B IC50 [1]: NE (NE indicates less than 50% inhibition at 30 μM.)
GluN2A IC50 [2]: NE (NE indicates less than 50% inhibition at 30 μM.)
IC50 [3, 8]: 3.1 µM

O=C(O)CCC(=O)N1N=C(c2c(-c3ccc(F)cc3)c3ccccc3[nH]c2=O)CC1c1ccc(F)cc1 (centres unmarked) [997-105, 4-(5-(4-fluorophenyl)-3-(4-(4-fluorophenyl)-2-oxo-1,2-dihydroquinolin-3-yl)-4,5-dihydro-1H-pyrazol-1-yl)-4-oxobutanoic acid]
IC50 [4]: 6.7 µM
GluN2B IC50 [1]: NE (NE indicates less than 50% inhibition at 30 μM.)
GluN2A IC50 [2]: NE (NE indicates less than 50% inhibition at 30 μM.)
IC50 [3, 8]: 5.1 µM

O=C(O)CC(F)(F)C(=O)N1N=C(c2c(-c3ccc(Cl)cc3)c3ccccc3[nH]c2=O)CC1c1ccc(Cl)s1 (centres unmarked) [997-110, 4-(3-(4-(4-chlorophenyl)-2-oxo-1,2-dihydroquinolin-3-yl)-5-(5-chlorothiophen-2-yl)-4,5-dihydro-1H-pyrazol-1-yl)-3,3-difluoro-4-oxobutanoic acid]
IC50 [4]: 0.43 µM
IC50 [5]: 100 µM
selectivity at GluN2D- over GluN2B-containing receptor [6]: 625 fold
fold decrease of potency at GluN2D in comparison to 997-74 ([6]; comparator 997-74): 3 fold
2B IC50 / 2D IC50 [6]: 625
IC50 [3, 9]: 0.16 µM

NC(=O)C(F)(F)CC(=O)N1N=C(c2c(-c3ccc(Cl)cc3)c3ccccc3[nH]c2=O)CC1c1ccc(Cl)cc1 (centres unmarked) [997-115, 4-(5-(4-chlorophenyl)-3-(4-(4-chlorophenyl)-2-oxo-1,2-dihydroquinolin-3-yl)-4,5-dihydro-1H-pyrazol-1-yl)-2,2-difluoro-4-oxobutanamide]
IC50 [4]: 1.44 µM
GluN2B IC50 [1]: NE (NE indicates less than 50% inhibition at 30 μM.)
GluN2A IC50 [2]: NE (NE indicates less than 50% inhibition at 30 μM.)
IC50 [3, 8]: 0.343 µM

O=C(O)CC(F)(F)C(=O)N1N=C(c2ccccc2-c2ccc(F)cc2F)CC1c1ccc(Cl)cc1 (centres unmarked) [997-121, 4-(5-(4-chlorophenyl)-3-(2′,4′-difluoro-[1,1′-biphenyl]-2-yl)-4,5-dihydro-1H-pyrazol-1-yl)-3,3-difluoro-4-oxobutanoic acid]
IC50 [4]: 13.5 µM
GluN2B IC50 [1]: NE (NE indicates less than 50% inhibition at 30 μM.)
GluN2A IC50 [2]: NE (NE indicates less than 50% inhibition at 30 μM.)
fold decrease of activity in comparison to 997-95 ([6]; comparator 997-95): 2 fold
IC50 [3, 8]: 12.3 µM
